Tests used:
[1] = target: rhIDO (recombinant human IDO) (Homo sapiens, UniProt P14902); test: Enzyme assay using rhIDO (rate of kynurenine production); format: biochemical; conditions: 2 h; final concentration of the compound 10 μM; rate relative to reaction without compound; read-out: rhIDO-mediated kynurenine production
Procedure, shortened: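 rhIDO preincubated with compound 10 min at 37 °C in phosphate buffer with ascorbate, methylene blue and catalase; started with 2 mM tryptophan solution (stock) and run 120 min at 37 °C. Stopped with TCA and heated to convert N-formylkynurenine; kynurenine read at 490 nm after p-dimethylbenzaldehyde, background-subtracted, as % of no-compound control.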

[2] = target: rhTDO (recombinant human TDO) (Homo sapiens, UniProt P48775); test: Enzyme assay using rhTDO (rate of kynurenine production); format: biochemical; conditions: 2 h; final concentration of the compound 10 μM; rate relative to reaction without compound; read-out: rhTDO-mediated kynurenine production
Procedure, shortened: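 Kynurenine output, as percent of untreated control after background subtraction, read at 490 nm with p-dimethylbenzaldehyde following TCA quench and 15 min heating at 50 °C. Reaction: rhTDO with compound, 10 min preincubation then 120 min at 37 °C, started by 20 mM tryptophan stock, in phosphate/ascorbate/methylene blue/catalase.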

IDO in A431 cells = target: T1, IDO in A431 cells (Homo sapiens, UniProt P14902); test: IDO cell-based assay, kynurenine production in IFN-γ stimulated A431 cells; conditions: A-431, 24 h; final concentration of the compound 10 μM; rate relative to culture without compound
T1 construct: endogenous in cells; host or cells: A431 cells, IFN-γ stimulated
Procedure, shortened: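 A431 cells were cultured 24 h, then preincubated 1 h with compound in medium containing 178 μM L-tryptophan, and stimulated with IFN-γ (diluted to 100 ng/mL before addition) for 24 h. Kynurenine was measured by p-dimethylbenzaldehyde absorbance at 460 nm, background-subtracted, and expressed as % production versus no-compound control.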

rhIDO (recombinant human IDO), sequence (P14902 whole entry): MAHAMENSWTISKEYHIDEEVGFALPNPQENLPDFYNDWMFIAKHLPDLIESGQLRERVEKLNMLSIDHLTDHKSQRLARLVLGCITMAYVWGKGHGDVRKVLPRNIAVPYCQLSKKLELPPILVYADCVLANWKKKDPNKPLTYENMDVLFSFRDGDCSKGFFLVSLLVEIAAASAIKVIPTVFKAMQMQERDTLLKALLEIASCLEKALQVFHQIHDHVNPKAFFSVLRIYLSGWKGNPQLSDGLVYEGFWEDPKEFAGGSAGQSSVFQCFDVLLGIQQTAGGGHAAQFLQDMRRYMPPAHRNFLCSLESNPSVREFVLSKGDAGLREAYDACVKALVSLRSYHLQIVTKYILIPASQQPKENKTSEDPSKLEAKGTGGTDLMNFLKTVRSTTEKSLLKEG
T1 sequence (P14902 whole entry): as above
rhTDO (recombinant human TDO), sequence (P48775 whole entry): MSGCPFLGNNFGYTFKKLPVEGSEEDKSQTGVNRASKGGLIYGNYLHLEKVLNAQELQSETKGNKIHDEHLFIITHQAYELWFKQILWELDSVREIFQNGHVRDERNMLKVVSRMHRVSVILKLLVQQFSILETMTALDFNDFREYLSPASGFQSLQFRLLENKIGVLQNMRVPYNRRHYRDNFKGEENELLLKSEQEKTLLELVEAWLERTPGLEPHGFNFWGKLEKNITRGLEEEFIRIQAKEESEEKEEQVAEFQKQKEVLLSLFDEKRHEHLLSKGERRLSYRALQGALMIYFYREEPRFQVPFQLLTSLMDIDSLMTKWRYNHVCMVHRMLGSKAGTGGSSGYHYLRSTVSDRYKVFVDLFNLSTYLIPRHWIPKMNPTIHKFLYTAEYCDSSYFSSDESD

remaining activity at 10 µM [1] [%] | remaining activity at 10 µM [2] [%] | remaining activity at 10 µM (IDO in A431 cells) [%] | SMILES
11 | 6 | 7 | Br.Br.N=C(N)SCc1ccc(F)cc1CSC(=N)N [Compound 2, (4-fluoro-1,2-phenylene)bis(methylene) dicarbamimidothioate dihydrobromide]
10 | 3 | 0 | Br.Br.N=C(N)SCc1ccc(Cl)cc1CSC(=N)N [Compound 7, (4-chloro-1,2-phenylene)bis(methylene) dicarbamimidothioate dihydrobromide]
11 | 17 | 13 | Br.Br.N=C(N)SCc1ccsc1CSC(=N)N [Compound 31, thiophene-2,3-diylbis(methylene) dicarbamimidothioate dihydrobromide]
22 | 12 | 12 | Br.Br.N=C(N)SCc1cscc1CSC(=N)N [Compound 15, thiophene-3,4-diylbis(methylene) dicarbamimidothioate dihydrobromide]
3 | 6 | 2 | Br.Br.N/C(=N\c1ccc(F)cc1F)SCc1ccccc1CS/C(N)=N/c1ccc(F)cc1F [Compound 95, 1,2-Phenylenebis(methylene) (E,E)-bis(N-(2,4-difluorophenyl)carbamimidothioate)dihydrobromide]
26 | 13 | 11 | Cl.Cl.N=C(N)SCc1ccccc1CSC(=N)N [Compound 1, 1,2-phenylenebis(methylene) dicarbamimidothioate dihydrochloride]
9 | 4 | 4 | Clc1cc(CSC2=NCN(CC3CCCCC3)CN2)c(CSC2=NCN(CC3CCCCC3)CN2)cc1Cl [Compound 50, 6,6′-(((4,5-Dichloro-1,2-phenylene)bis(methylene))bis(sulfanediyl))bis(3-(cyclohexylmethyl)-1,2,3,4-tetrahydro-1,3,5-triazine)]
14 | 5 | 1 | Brc1ccc(CSC2=NCN(CC3CCCCC3)CN2)c(CSC2=NCN(CC3CCCCC3)CN2)c1 [Compound 52, 6,6′-(((4-Bromo-1,2-phenylene)bis(methylene))bis(sulfanediyl))bis(3-(cyclohexylmethyl)-1,2,3,4-tetrahydro-1,3,5-triazine)]
1 | 3 | -1 | Br.Br.N=C(N)SCc1ccc(Br)cc1CSC(=N)N [Compound 10, (4-bromo-1,2-phenylene)bis(methylene) dicarbamimidothioate dihydrobromide]
23 | 15 | 10 | c1ccc(CSC2=NCN(CC3CCCCC3)CN2)c(CSC2=NCN(CC3CCCCC3)CN2)c1 [Compound 29, 1,2-bis(((5-(cyclohexylmethyl)-1,4,5,6-tetrahydro-1,3,5-triazin-2-yl)thio)methyl)benzene]
1 | 15 | 4 | N/C(=N\c1ccc(Br)cc1)SCc1ccc(Br)cc1CS/C(N)=N/c1ccc(Br)cc1 [Compound 49, (4-Bromo-1,2-phenylene)bis(methylene) (E,E)-bis(N′-(4-bromophenyl)carbamimidothioate)]

SMILES | remaining activity at 10 µM [1] [%] | remaining activity at 10 µM [2] [%] | remaining activity at 10 µM (IDO in A431 cells) [%]
Clc1cc(CSC2=NCN(CCc3ccccc3)CN2)c(CSC2=NCN(CCc3ccccc3)CN2)cc1Cl [Compound 37, 6,6′-(((4,5-Dichloro-1,2-phenylene)bis(methylene))bis(sulfanediyl))bis(3-phenethyl-1,2,3,4-tetrahydro-1,3,5-triazine)] | < 9 | < 7 | 1
Br.N#Cc1ccc(CNC(=O)c2cc(Br)ccc2CSC(=N)N)cc1 [Compound 103, 4-Bromo-2-((4-cyanobenzyl)carbamoyl)benzyl carbamimidothioate hydrobromide] | 0 | 22 | 3
Cl.Cl.c1ccc(CCN2CN=C(SCc3cscc3CSC3=NCN(CCc4ccccc4)CN3)NC2)cc1 [Compound 33, 3,4-Bis{[(5-phenethyl-1,4,5,6-tetrahydro-1,3,5-triazin-2-yl)thio]methyl}thiophene dihydrochloride] | 37 | 21 | 3
Br.N#Cc1ccc(CNC(=O)c2ccc(Br)cc2CSC(=N)N)cc1 [Compound 76, 5-Bromo-2-((4-cyanobenzyl)carbamoyl)benzyl carbamimidothioate hydrobromide] | 78 | 15 | 82

Source: US12209079B2 (GENERAL INCORPORATED ASSOCIATION PHARMA VALLEY PROJECT …, priority 2017, dated 2025)
